This note sets out measurements from patent US9101539B2, “Intranasal pharmaceutical compositions with improved pharmacokinetics” (SHIN NIPPON BIOMEDICAL LABORATORIES, LTD., priority 2009, dated 2015).

Molecules are shown by their SMILES.

A short description of data set [1]: in vivo. The conditions noted are these: rhesus monkey, inhaled or intranasal. As for the experimental part:
Blood was obtained at 10, 20, 30, 60, 120, 240, and 480 minutes post-administration from the monkeys administered the solid dosage form. For the monkeys treated with the nasal spray, blood was obtained 5, 10, 20, 30, 60, 120, 240, and 480 minutes post-treatment.
Blood was obtained at 5, 10, 20, 30, 60, 120, and 240 minutes post-administration.
Administered dose was 6 mg/animal. […] Blood was obtained at 5, 10, 20, 30, 60, 120, and 240 minutes post-administration.
(§1) Administered dose was 6 mg/animal. […] Administered dose was 6 mg/animal. Blood was obtained at 5, 10, 20, 30, 60, 120, and 240 minutes post-administration.
Total dose was 6 mg/animal. Blood was obtained at 5, 10, 20, 30, 60, 120, and 240 minutes post-administration.
as §1, §1
(§2) Administered dose was 6 mg/animal. […] Administered dose was 6 mg/animal. […] Blood was obtained at 5, 10, 20, 30, 60, 120, and 240 minutes post-administration.
as §2

A short description of data set [2]: Zolmitriptan pharmacokinetics (plasma concentration versus time) in rhesus monkeys. The data set is classed as in vivo. Particulars: 5 mg/animal; for Tmax: intranasal dry powder, n=2. On the procedure: The pharmacokinetics of a zolmitriptan liquid nasal spray and a dry powder formulation were studied in two groups of rhesus monkeys. One group, n=2, was administered a nasal spray of zolmitriptan (Zomig®, 5 mg/100 μl in an aqueous buffered solution). A second, n=2, was administered intranasal zolmitriptan freebase with a particle size of <15 μm. The administered dose was 5 mg/animal.
One group, n=2, was administered intranasal zolmitriptan freebase with a particle size of <15 μm. Administered dose was 5 mg/animal. […] Administered dose was 5 mg/animal.

Setting [3] is: intranasal dry powder <15 μm, versus Zomig nasal spray.

As to `CNS(=O)(=O)Cc1ccc2[nH]cc(CCN(C)C)c2c1` [sumatriptan freebase], the “Cmax among the formulations tested that contained freebase” value in data set [1] was “highest”.

For orientation: Cmax means the maximum level reached in the sampled fluid or tissue. A word on the Tmax: it is the time at which the peak concentration occurs. Take `CNS(=O)(=O)Cc1ccc2[nH]cc(CCN(C)C)c2c1` [sumatriptan succinate]: the Cmax in data set [1] (6 mg, Cmax) came out at 696 ng/mL. Also, the Tmax in data set [1] (6 mg, Tmax) was 7.5 min.

Consider `CN(C)CCc1c[nH]c2ccc(C[C@H]3COC(=O)N3)cc12` [zolmitriptan freebase], for which, in data set [2] (setting [3]), the “BA compared with the liquid spray” value was “significantly increased” and the “Cmax compared with the liquid spray” value is “significantly increased”. Moreover, the Tmax in data set [2] (50% of the particles <15 μm and 50% 38 μm-100 μm) worked out at 20 min. Also, the Tmax in data set [2] (particle size <15 μm) was 10 min.
